The text below walks through data of patent publication US4607034A, “Quinazoline derivatives and pharmaceutical composition thereof” (priority 1979, dated 1986).

Read-outs that look alike come from different tables or passages of the source.

By LD50 is commonly meant the dose expected to kill half of the subjects tested. Read a low LD50 as greater toxicity.

In one series the test system is ICR-strain male mice. Nature of the series: in vivo. To be noted: oral, ten mice/group, one week. It counts as in vivo. The protocol: (§1) Ten ICR-strain male mice weighing from 25 to 35 g. were used per one group, after fasting for 6 hours (water was freely taken in). Each test sample was suspended in a 1% tragacanth solution and administered orally at a concentration adjusted so as to give a volume of 40 ml/kg. After administration, feed was given and observation was continued for one week.

A further series can be described thus: in vivo. To be noted: mouse, in vivo; oral, mice, ten mice/group, observed one week. In kind it is in vivo. The protocol: as §1
Series [1] has as its system spontaneously hypertensive rats (SHR). The series can be described thus: Antihypertensive test in spontaneously hypertensive rats (mean blood pressure). It counts as in vivo, male). To be noted: Rattus norvegicus. How it is done:
(§2) Through a cannula chronically intubated into the abdominal aorta of a male SHR of 20 to 30 weeks after birth, mean blood pressure and heart rate were measured by means of an electronic recording system without anesthesia and restraint. Five rats were employed in one group of SHR. […] At 1, 3, 6 and 24 hours after administration of test samples, blood pressure and heart rate were determined.

A further series has as its system α-adrenoceptor. The conditions noted are these: known; cited from earlier work.
The subject of series [2] is spontaneously hypertensive rats (SHR). The conditions noted are these: rat, in vivo, po. The protocol: as §2
Setting [3] is: SHR 3 mg/kg, oral administration, 1 hr, negative = decrease, read-out: Percent decrease in mean blood pressure after administration, 1 hr.
[4] abbreviates: SHR 3 mg/kg, oral administration, 3 hrs, negative = decrease, read-out: Percent decrease in mean blood pressure after administration, 3 hrs.
Setting [5] is: SHR 3 mg/kg, oral administration, 6 hrs, negative = decrease, read-out: Percent decrease in mean blood pressure after administration, 6 hrs.
Where [6] appears, read: SHR 3 mg/kg, oral administration, 24 hrs, negative = decrease, read-out: Percent decrease in mean blood pressure after administration, 24 hrs.

`COc1cc2nc(N3CCN(C(=O)NC4CCCC4)CC3)nc(N)c2cc1OC` [Compound 3, 2-(4-cyclopentylcarbamoyl-piperazin-1-yl)-4-amino-6,7-dimethoxyquinazoline]: the “Number of dead mouse” value in the series with ICR-strain male mice (2,500 mg/kg) and with ICR-strain male mice (5,000 mg/kg) was 0 throughout. The molecule further showed an LD50 at 168 h in “in vivo” of over 5000 mg/kg. The change in vivo at 3 mg/kg in series [1] (setting [3]) was -27.1%; in series [1] (setting [4]), -27%; in series [1] (setting [5]) it was -27%; in series [1] (setting [6]), -0.3%.
With `COc1cc2nc(N3CCN(C(=O)NC4CCCCC4)CC3)nc(N)c2cc1OC` [Compound 4, 2-(4-cyclohexylcarbamoyl-piperazin-1-yl)-4-amino-6,7-dimethoxyquinazoline], the “Number of dead mouse” value with ICR-strain male mice (2,500 mg/kg) and in the series on ICR-strain male mice (5,000 mg/kg) was 0 each time. For the same molecule, the LD50 at 168 h in “in vivo” is over 5000 mg/kg. The change in vivo at 3 mg/kg in series [1] (setting [3]) was -26.8%; in series [1] (setting [4]) it was -26.2%; in series [1] (setting [5]), -25.1%; in series [1] (setting [6]), -4.9%.
With `COc1cc2nc(N3CCN(C(=O)NC4CCCCCC4)CC3)nc(N)c2cc1OC` [Compound 5, 2-(4-cycloheptylcarbamoyl-piperazin-1-yl)-4-amino-6,7-dimethoxyquinazoline], the change in vivo at 3 mg/kg is -18.4% in series [1] (setting [3]), -24.7% in series [1] (setting [4]), -19.2% in series [1] (setting [5]) and -3.7% in series [1] (setting [6]).
Taken in the same sequence, the figures for `COc1cc2nc(N3CCN(C(=O)Nc4ccco4)CC3)nc(N)c2cc1OC` [Compound 6, 2-[4-(furan-2-yl)carbamoyl-piperazin-1-yl]-4-amino-6,7-dimethoxyquinazoline] were -11.9%, -14.5%, -11.4% and 1%.
For `COc1cc2nc(N3CCN(C(=S)NC4CCCCC4)CC3)nc(N)c2cc1OC` [Compound 9, 2-(4-cyclohexylthiocarbamoyl-piperazin-1-yl)-4-amino-6,7-dimethoxyquinazoline], in that order: -19.3%, -22.2%, -20.5% and -1.3%.
Take `COc1cc2nc(N3CCN(C(=O)Nc4ccccc4)CC3)nc(N)c2cc1OC` [Compound 12, 2-(4-phenylcarbamoyl-piperazin-1-yl)-4-amino-6,7-dimethoxyquinazoline]: the “Number of dead mouse” value in the series with ICR-strain male mice (2,500 mg/kg) and in the series on ICR-strain male mice (5,000 mg/kg) was 0 in each case. The molecule further returned an LD50 at 168 h in “in vivo” of over 5000 mg/kg. Further, the change in vivo at 3 mg/kg in series [1] (setting [3]) is -13.3%; in series [1] (setting [4]), -19.7%; in series [1] (setting [5]), -17%; in series [1] (setting [6]), 3.7%.
In the case of `COc1cc2nc(N3CCN(C(=O)Nc4ccccc4C)CC3)nc(N)c2cc1OC` [Compound 13, 2-[4-(2-methylphenyl)carbamoyl-piperazin-1-yl]-4-amino-6,7-dimethoxyquinazoline], the “Number of dead mouse” value in the series on ICR-strain male mice (2,500 mg/kg) turned out to be 5; with ICR-strain male mice (5,000 mg/kg) it was 10. In addition, the LD50 at 168 h in the series “in vivo” is 2500 mg/kg. Moreover, the change in vivo at 3 mg/kg was -20.2% in series [1] (setting [3]), -17.9% in series [1] (setting [4]), -21.4% in series [1] (setting [5]) and 1.2% in series [1] (setting [6]).
For the molecule `COc1cc2nc(N3CCN(C(=O)Nc4ccc(C)cc4)CC3)nc(N)c2cc1OC` [Compound 15, 2-[4-(4-methylphenyl)carbamoyl-piperazin-1-yl]-4-amino-6,7-dimethoxyquinazoline], the change in vivo at 3 mg/kg is -17.1% in series [1] (setting [3]), -18.5% in series [1] (setting [4]), -21.8% in series [1] (setting [5]) and 1.2% in series [1] (setting [6]).
Regarding `COc1cccc(NC(=O)N2CCN(c3nc(N)c4cc(OC)c(OC)cc4n3)CC2)c1` [Compound 18, 2-[4-(3-methoxyphenyl)carbamoyl-piperazin-1-yl]-4-amino-6,7-dimethoxyquinazoline], the change in vivo at 3 mg/kg in series [1] (setting [3]) is -5.9%; in series [1] (setting [4]), -17.2%; in series [1] (setting [5]), -15.9%; in series [1] (setting [6]), 4.6%.
Regarding `CCOc1ccc(NC(=O)N2CCN(c3nc(N)c4cc(OC)c(OC)cc4n3)CC2)cc1` [Compound 21, 2-[4-(4-ethoxyphenyl)carbamoyl-piperazin-1-yl]-4-amino-6,7-dimethoxyquinazoline], the “Number of dead mouse” value with ICR-strain male mice (2,500 mg/kg) and with ICR-strain male mice (5,000 mg/kg) was 0 each time. Also, the LD50 at 168 h in “in vivo” was over 5000 mg/kg. In addition, the change in vivo at 3 mg/kg in series [1] (setting [3]) was -22.4%; in series [1] (setting [4]), -24.5%; in series [1] (setting [5]), -27.7%; in series [1] (setting [6]), -6.4%.
In the case of `COc1cc2nc(N3CCN(C(=O)Nc4ccccc4F)CC3)nc(N)c2cc1OC` [Compound 25, 2-[4-(2-fluorophenyl)carbamoyl-piperazin-1-yl]-4-amino-6,7-dimethoxyquinazoline], the entries for the “Number of dead mouse” value with ICR-strain male mice (1,250 mg/kg), in the series on ICR-strain male mice (2,500 mg/kg) and with ICR-strain male mice (5,000 mg/kg) were 3, 7 and 10, respectively. In “in vivo”, the LD50 at 168 h was determined as 1870 mg/kg. Further, the change in vivo at 3 mg/kg in series [1] (setting [3]) is -30.3%; in series [1] (setting [4]) it was -22%; in series [1] (setting [5]), -23.8%; in series [1] (setting [6]), -7.3%.
Turning to `COc1cc2nc(N3CCN(C(=O)Nc4cccc(F)c4)CC3)nc(N)c2cc1OC` [Compound 26, 2-[4-(3-fluorophenyl)carbamoyl-piperazin-1-yl]-4-amino-6,7-dimethoxyquinazoline], the change in vivo at 3 mg/kg in series [1] (setting [3]) is -21.5%; in series [1] (setting [4]), -21.7%; in series [1] (setting [5]), -24.3%; in series [1] (setting [6]), 0%.
For `COc1cc2nc(N3CCN(C(=O)Nc4cccc(Cl)c4)CC3)nc(N)c2cc1OC` [Compound 29, 2-[4-(3-chlorophenyl)carbamoyl-piperazin-1-yl]-4-amino-6,7-dimethoxyquinazoline], in that order: -15.1%, -18.5%, -19.4% and -4.9%.
Taken in the same sequence, the figures for `COc1cc2nc(N3CCN(C(=O)Nc4ccc(Cl)cc4C)CC3)nc(N)c2cc1OC` [Compound 34, 2-[4-(2-methyl-4-chlorophenyl)carbamoyl-piperazin-1-yl]-4-amino-6,7-dimethoxyquinazoline] were -12.1%, -19%, -18.2% and -1.2%.
Consider `COc1cc2nc(N3CCN(/C(S)=N/c4ccccc4)CC3)nc(N)c2cc1OC` [Compound 35, 2-(4-phenylthiocarbamoyl-piperazin-1-yl)-4-amino-6,7-dimethoxyquinazoline], for which the “Number of dead mouse” value with ICR-strain male mice (2,500 mg/kg) and with ICR-strain male mice (5,000 mg/kg) was 0 each time. In the series “in vivo”, the LD50 at 168 h is over 5000 mg/kg. In addition, the change in vivo at 3 mg/kg in series [1] (setting [3]) is -28%; in series [1] (setting [4]) it was -20.9%; in series [1] (setting [5]), -24.7%; in series [1] (setting [6]), 0.6%.
For the molecule `COc1cc2nc(N3CCCN(C(=O)Nc4ccccc4)CC3)nc(N)c2cc1OC` [Compound 37, 2-(4-phenylcarbamoyl-homopiperazin-1-yl)-4-amino-6,7-dimethoxyquinazoline], the change in vivo at 3 mg/kg is -11.7% in series [1] (setting [3]), -12.8% in series [1] (setting [4]), -5% in series [1] (setting [5]) and 0% in series [1] (setting [6]).
With `COc1cc2nc(N3CCN(C(=O)c4ccco4)CC3)nc(N)c2cc1OC` [Prazosin, 2-[4-(2-furoyl)-piperazin-1-yl]-4-amino-6,7-dimethoxyquinazoline, reference compound], the “mechanism of antihypertensive activity” value in the series with α-adrenoceptor is listed as “relaxation of peripheral arterioles as a consequence of α-adrenoceptor blockade”. In series [2], the “change in heart rate” value was “no significant change”. Besides, the change in vivo at 3 mg/kg in series [1] (po, 24 h, read-out: Percent decrease in mean blood pressure after administration, 24 hrs) was -1.7%; in series [1] (setting [3]), -27.9%; in series [1] (setting [4]), -17.3%; in series [1] (setting [5]), -19%.
